# Measured values as given in US20260272899A1 (Bayer Aktiengesellschaft, priority 2024, published 2026).
structure (smiles),measurement,setting,value
"CCOc1ncc(C)c2c1[C@H](c1ccc(C#N)cc1OC)C(C(N)=O)=C(C)N2 [finerenone, (4S)-4-(4-cyano-2-methoxyphenyl)-5-ethoxy-2,8-dimethyl-1,4-dihydro-1,6-naphthyridine-3-carboxamide]","Sudden death, number of subjects","AE of death or leading to death by preferred term, finerenone n = 2,993",20
same,"All-cause death, Rate (per 100 py)","No SGLT2i use at baseline, column headed Finerenone n = 2,610",7.0 per 100 py
same,Total worsening heart failure events and death from cardiovascular causes: Rate per 100 patient-yr,"finerenone N = 3,003",14.9 per 100 patient-yr
